Assay [1] has as its target T1, ADAM10 (Homo sapiens, UniProt O14672).
T1 sequence (O14672 214-748): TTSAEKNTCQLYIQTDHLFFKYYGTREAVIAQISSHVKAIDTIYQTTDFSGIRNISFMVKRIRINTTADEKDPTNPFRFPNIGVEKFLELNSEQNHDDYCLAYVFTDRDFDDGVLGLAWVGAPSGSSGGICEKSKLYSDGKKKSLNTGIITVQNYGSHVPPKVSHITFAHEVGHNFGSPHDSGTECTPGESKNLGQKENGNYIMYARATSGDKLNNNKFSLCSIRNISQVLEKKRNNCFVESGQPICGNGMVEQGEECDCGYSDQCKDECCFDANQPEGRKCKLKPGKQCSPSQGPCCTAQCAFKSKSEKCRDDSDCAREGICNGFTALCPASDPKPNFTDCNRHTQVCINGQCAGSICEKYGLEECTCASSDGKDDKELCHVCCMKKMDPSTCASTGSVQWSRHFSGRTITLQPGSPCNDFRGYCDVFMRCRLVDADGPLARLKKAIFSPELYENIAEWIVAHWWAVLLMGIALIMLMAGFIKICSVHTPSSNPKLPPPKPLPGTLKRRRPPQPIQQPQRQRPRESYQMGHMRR
The assay can be described thus: In vitro cleavage of TREM2 stalk region peptides by ADAM10. The note with it: data not shown. It counts as biochemical. An excerpt: (§1) In order to identify the cleavage site of ADAM10/ADAM17 within the stalk region of TREM2, in vitro cleavage patterns of stalk region-derived peptides were investigated and confirmed the cleavage site by determination of the C-terminus of shed soluble TREM2 from cell culture supernatants. A series of peptides covering the stalk region were designed for in vitro investigation of ADAM10/ADAM17 cleavage (FIG. 5A). All peptides were obtained with an N-terminal 7-methoxycoumarin (Mca) fluorescent tag. Peptides 1-3, 1a and 2a were incubated with ADAM17 in neutral buffer for up to 48 hours, and reaction was followed by HPLC analysis of aliquots withdrawn at different time points.
(§2) HPLC-MS analysis of the reaction mixture of peptide3/ADAM17 identified one major product, SISRSLLEGEIPFP-NH2(SEQ ID NO: 51), together with 2 minor cleavage products (FIGS. 5B-5C). […] At these time points there was essentially no substrate left. Therefore, it can be concluded that the minor cleavage products originate from secondary ADAM17 cleavage of the main product.
Recent literature gave insight into ADAM10 and ADAM17 preferences for the cleavage of peptides and proteins (Caescu et al., Biochem J 424, 79-88, 2009; Tucher et al., J Proteome Res 13, 2205-2214, 2014). […] After searching for the least preferred amino acids in substrates of ADAM10 and 17, isoleucine was identified as never occurring in P1 of ADAM substrates, and a very low preference for aspartate or proline in P1′ and in P2′. […] In these peptides the H-SI cleavage site was replaced with IPP, IPD, and IDP, respectively.

In assay [2] the target is T2, ADAM17 (Homo sapiens, UniProt P78536). Nature of the assay: In vitro cleavage of TREM2 stalk region peptides by ADAM17 (HPLC). It is filed as biochemical. The note with it: neutral buffer, up to 48 hours, HPLC of parent peptide.
T2 sequence (P78536 215-824): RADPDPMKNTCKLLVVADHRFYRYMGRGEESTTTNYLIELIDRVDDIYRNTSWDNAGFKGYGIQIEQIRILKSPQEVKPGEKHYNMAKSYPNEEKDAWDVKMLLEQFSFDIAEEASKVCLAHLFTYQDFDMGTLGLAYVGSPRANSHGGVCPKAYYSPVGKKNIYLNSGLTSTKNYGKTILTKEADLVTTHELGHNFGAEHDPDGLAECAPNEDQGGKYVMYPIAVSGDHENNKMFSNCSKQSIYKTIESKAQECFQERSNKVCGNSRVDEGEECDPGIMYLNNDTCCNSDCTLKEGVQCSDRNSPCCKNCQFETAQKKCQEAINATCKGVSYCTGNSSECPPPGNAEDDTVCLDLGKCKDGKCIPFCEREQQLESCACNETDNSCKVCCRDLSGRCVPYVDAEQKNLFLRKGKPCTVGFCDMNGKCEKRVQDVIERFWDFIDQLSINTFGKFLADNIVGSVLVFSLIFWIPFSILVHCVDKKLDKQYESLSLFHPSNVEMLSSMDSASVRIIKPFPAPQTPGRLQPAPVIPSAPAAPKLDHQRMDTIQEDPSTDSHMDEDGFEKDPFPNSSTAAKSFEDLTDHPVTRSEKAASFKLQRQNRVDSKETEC
Description: FIGS. 5A-5E show ADAM17 cleaves TREM2 stalk region peptides in vitro at H157-S158. […] All peptides were obtained with an N-terminal 7-methoxycoumarin (Mca) fluorescent tag […]. Underlined amino acids indicates main sheddase cleavage site. AA112-171: SEQ ID NO: 24; Peptide 1: SEQ ID NO: 25; Peptide 2: SEQ ID NO: 26; Peptide 3: SEQ ID NO: 27; Peptide la: SEQ ID NO: 28; Peptide 2a: SEQ ID NO: 29; Peptide 4: SEQ ID NO: 30; Peptide 5: SEQ ID NO: 31; Peptide 6: SEQ ID NO: 32. […] FIG. 5C discloses SEQ ID NOS 83, 51 and 84, respectively, in order of appearance.
as §1, §2

For assay [3], the target named is T1, ADAM10. Nature of the assay: In vitro inhibition of recombinant ADAM10. It is filed as biochemical. The note with it: Hepes buffer pH 7.5.
Description: FIG. 2E is a line graph showing inhibition of recombinant ADAM10 and ADAM17 by DPC333 and GI254023 in vitro in Hepes buffer at pH 7.5.
Enzyme selectivity of the ADAM inhibitors applied was determined in an in vitro cleavage assay and both inhibitors were used over a broad concentration range to investigate effects on TREM2 cell surface expression in CHO-hDAP12-hTREM2 cells and human M2A macrophages.
In another assay the test system is THP1 cells. Nature of the assay: Cell surface TREM2 and sTREM2 in THP1 CRISPR cell clones. It is filed as cell-based, human. On the procedure: THP1 cells stably coexpressing Cas9 and a blasticidin resistance gene delivered by lentivirus were cultured in RPMI medium containing 10% FBS, 1% L-glutamine, 1% pen/strep, and 10 μg/ml of blasticidin (Thermo Fisher Scientific). The cells were cultured at 37° C. in 5% CO2 atmosphere.
THP1-Cas9 cells were infected with lentiviruses expressing the puromycin resistance gene and sgRNAs (for vector design, see Hoffman, Proceedings of the National Academy of Sciences of the United States of America 111, 3128-3133, 2014) targeting either ADAM10 ([…], SEQ ID NO: 75) or ADAM17 ([…], SEQ ID NO: 76). Lentiviral packaging was carried out in HEK293T cells as described previously. Briefly, 30 μL of lentiviral sgRNA supernatant was added to 1×10^6 THP1-Cas9 cells in 2 ml medium containing 5 μg/ml polybrene (Sigma) and spun at 300 g for 90 minutes in a 6-well plate. After 24 hours the cells were spun down and resuspended in fresh culture medium containing 1.5 μg/mL puromycin. After 4 weeks of weekly media changes, genomic DNA was isolated using a Quick-gDNA miniprep kit (Zymo Research) to assess the insertions and deletions (indels) present in the pool by next-generation sequencing (NGS). To isolate clones containing only frameshift indels, cells were plated at limiting dilution into 96-well plates. Upon expansion of the clones, they were assayed by NGS and clones containing only frameshift alleles were selected for downstream assays.
To confirm the results in Example 2, a genetic approach was used to further investigate the contribution of ADAM10/17 to TREM2 shedding. Human monocytic THP1 cells were chosen as model system which endogenously expresses TREM2. Employing the CRISPR/CAS9 technology, clones were generated that lack expression of ADAM10 (AD10 H4) or ADAM17 (AD17 G12) as well as a control cell line (Ctrl gRNA). Absence of gene products was verified by FACS analysis or Western blot (FIGS. 3C-3D).
Cell surface expressed TREM2 and sTREM2 were assessed in the three cell lines in the same experiment using three different conditions: no treatment reflecting constitutive shedding, PMA treatment that maximally activates shedding, and finally PMA and DPC333 treatment. […] Maximally activating sheddases with PMA leads to a strong reduction of cell surface TREM2 both in the control cell line and in the ADAM10 deficient clone. This is reflected in a strong increase in sTREM2. In the ADAM17 deficient cell line, PMA treatment also leads to a reduction of cell surface TREM2, but to a smaller extent than in the control CRISPR clone. Also, the increase in sTREM2 is smaller compared to PMA treated control CRISPR clone and ADAM10 deficient clone. However, the cleavage of TREM2 in the AD17 G12 clone in the presence of PMA must be caused by a sheddase other than ADAM17. […]

Another assay has as its system human M2A macrophages. The assay can be described thus: Live cell imaging of TREM2 cell surface expression in human M2A macrophages. It counts as cell-based. An excerpt:
(§3) CHO cells were transfected to co-express hDAP12 and hTREM2 using Lipofectamine LTX reagent (Thermofischer) according to the manufacturer's recommendations. One positive clone was selected and designated CHO-hDAP12-hTREM2. Human M2A macrophages were obtained from buffy coat using a negative isolation kit for monocytes (Stem cell technologies) and differentiated for 5 days in RPMI1640 medium with Glutamax (Gibco) supplemented with 10% FBS (Gibco), PenStrep (Gibco), 1% Sodium Pyruvate (Gibco), 0.025 M HEPES Buffer (Gibco), 0.05 mM β-mercaptoethanol (Gibco), M-CSF (40 ng/ml) and IL-4 (50 ng/ml). Cell surface TREM2 was detected by FACS as described above.
(§4) Human M2A macrophages or CHO-hDAP12-hTREM2 were seeded on 384 well plates (Greiner) and treated with ADAM inhibitors DPC333 or GI254023 at concentrations indicated in the figures. 16 h later cells were treated for 30 minutes with PMA (50 ng/ml) or 0.1% DMSO for 30 minutes. Plates were put on ice and stained with goat anti human TREM2 antibody AF1828 (R&D Systems) or isotype control and Hoechst stain followed by incubation with the secondary Alexa Fluor 488 conjugated anti goat antibody (Molecular Probes). Images were acquired using an InCe112000 analyzer (GE Healthcare). For image quantification the free open source software CellProfiler was applied.
To determine the contribution of ADAM10 or ADAM17 to shedding of TREM2 ectodomain, selective inhibitors were identified: DPC333 (Qian et al., Drug Metabolism and Disposition: the Biological Fate of Chemicals 35, 1916-1925, 2007) and GI254023 (Hundhausen et al., Blood. 2003; 102:1186-1195). DPC333 and GI254023 were characterized for inhibitory selectivity towards ADAM10 and ADAM17. […] Using live cell imaging, cell surface expression of hTREM2 was assessed in CHO-hDAP12-hTREM2 cells after overnight treatment of the cells with the two ADAM inhibitors under conditional shedding conditions (FIG. 2A) or after treatment of the cells with PMA (FIG. 2B). […]

A further assay has as its system CHO-hDAP12-hTREM2 cells. Nature of the assay: Live cell imaging of TREM2 cell surface expression in CHO-hDAP12-hTREM2 cells. It counts as cell-based. Particulars: overnight treatment.
Description: as §3, §4
To determine the contribution of ADAM10 or ADAM17 to shedding of TREM2 ectodomain, selective inhibitors were identified: DPC333 (Qian et al., Drug Metabolism and Disposition: the Biological Fate of Chemicals 35, 1916-1925, 2007) and GI254023 (Hundhausen et al., Blood. 2003; 102:1186-1195). DPC333 and GI254023 were characterized for inhibitory selectivity towards ADAM10 and ADAM17. […] Using live cell imaging, cell surface expression of hTREM2 was assessed in CHO-hDAP12-hTREM2 cells after overnight treatment of the cells with the two ADAM inhibitors under conditional shedding conditions (FIG. 2A) or after treatment of the cells with PMA (FIG. 2B). […] This effect might be attributed to true ADAM10 inhibition or it might be caused by unspecific inhibition of ADAM17 by GI254023 when used at high concentrations. […] To get closer to a physiological cellular system, a similar experiment was conducted in human M2A macrophages differentiated from CD^14+ human monocytes (FIGS. 2C-2D).

Assay [4] deals with T2, ADAM17. The assay can be described thus: In vitro inhibition of recombinant ADAM17. It is filed as biochemical. Particulars: Hepes buffer pH 7.5.
[5] abbreviates: conditional shedding (steady state) conditions, FIG. 2A.
[6] abbreviates: then PMA-treated cells, FIG. 2B.

The values that follow come from US20200207830A1, “TREM2 MUTANTS RESISTANT TO SHEDDASE CLEAVAGE” (NOVARTIS AG, priority 2017, published 2020).

No end group written: not given here.

With “Peptide 3: TREM2 stalk region derived synthetic peptide with 7-methoxycoumarin (Mca) tag; SEQ ID NO: 27 (DAHVEHSISRSLLEGEIPFP; also: 7-methoxycoumarin (Mca) tag, position not given here)”, the “Cleavage by ADAM10” value with ADAM10 [1] is “very similar cleavage pattern”. The “Cleavage by ADAM17” value with ADAM17 [2] is on record as “Significant cleavage”.

A word on the IC50: it is the midpoint of a concentration-inhibition curve. As to `Cc1cc(COc2ccc([C@]3(N)CCN([C@H](CC(C)C)C(=O)NO)C3=O)cc2)c2ccccc2n1` [DPC333], the IC50 on ADAM10 [3] was 5.3 nM; on ADAM17 [4], < 0.6 nM. For the same compound, the “TREM2 cell surface levels” value in the assay with THP1 cells (co-treatment with PMA and DPC333, AD10 H4 cells (ADAM10 knockout)) is recorded as “restored”; in the assay on THP1 cells (co-treatment with PMA and DPC333, AD17 G12 clone (ADAM17 knockout)), “smaller effects”; with THP1 cells (co-treatment with PMA and DPC333, Ctrl gRNA cells), “restored”; with CHO-hDAP12-hTREM2 cells (setting [5]), “dose-dependently increases”; in the assay with CHO-hDAP12-hTREM2 cells (setting [6]) it was “dose-dependently increases”. Besides, the sTREM2 result in the assay with THP1 cells (co-treatment with PMA and DPC333 compared to PMA treatment only, AD17 G12 clone) is reported as “strongly reduced”. Besides, the “TREM2 cell surface expression” value is given as “increases TREM2 cell surface expression dose-dependently” with human M2A macrophages (additional PMA treatment, FIG. 2D) and “increases TREM2 cell surface expression dose-dependently” with human M2A macrophages (steady-state shedding, FIG. 2C).

Consider `CNC(=O)[C@@H](NC(=O)[C@H](CCCc1ccccc1)[C@H](C)N(O)C=O)C(C)(C)C` [GI254023, (2R,3 S)-3-(formyl-hydroxyamino)-2-(3-phenyl-1-propyl) butanoic acid [(1S)-2,2-dimethyl-1-methylcarbamoyl-1-propyl] amide], for which the values for the IC50 on ADAM10 [3] and at ADAM17 [4] were 1.5 nM and 196 nM, respectively. Also, the “TREM2 cell surface expression” value with human M2A macrophages (steady-state shedding, FIG. 2C) is on record as “small effect”. Besides, the figures for the “TREM2 cell surface levels” value with CHO-hDAP12-hTREM2 cells (setting [5]) and with CHO-hDAP12-hTREM2 cells (setting [6]) were “limited effect” and “complete lack of effect”, respectively.

In the case of “Peptide 6: TREM2 stalk peptide, H-SI cleavage site replaced with IDP; SEQ ID NO: 32 (DAHVEIDPSRSLLEGEIPFP)”, the “Cleavage by ADAM10” value in the assay with ADAM10 [1] was “slowly cleaved”. For the same compound, the “Cleavage by ADAM17” value with ADAM17 [2] is “resistant to in vitro cleavage”.

Take “Peptide 4: TREM2 stalk peptide, H-SI cleavage site replaced with IPP; SEQ ID NO: 30 (DAHVEIPPSRSLLEGEIPFP)”: in the assay with ADAM10 [1], the “Cleavage by ADAM10” value is listed as “cleavage resistant”. Besides, the “Cleavage by ADAM17” value with ADAM17 [2] was “resistant to in vitro cleavage”.

With “Peptide 5: TREM2 stalk peptide, H-SI cleavage site replaced with IPD; SEQ ID NO: 31 (DAHVEIPDSRSLLEGEIPFP)”, the “Cleavage by ADAM10” value in the assay with ADAM10 [1] is “slowly cleaved”. Further, the “Cleavage by ADAM17” value in the assay with ADAM17 [2] is “resistant to in vitro cleavage”.
